The values that follow come from paper PMC7719179, “Small molecule inhibition of Dynamin-dependent endocytosis targets multiple niche signals and impairs leukemia stem cells” (Nature Communications, 2020).

Values joined by “and” are separate entries in the source; they are usually repeats but may differ in a detail not shown here. Identical values can stand only once.

The experiment deals with Ba/F3-IL7R^Stat5-CA cells. The experiment can be described thus: pStat5 and proliferation of Ba/F3-IL7R^Stat5-CA cells with IL-7 or doxycycline. In kind it is cell-based, murine. The note with it: relative to data from day 0, reported as 1, groups +IL-7 -DOX or -IL-7 +DOX. The procedure: Ba/F3 cells (kindly provided by a person from The Walter and Eliza Hall Institute of Medical Research) were infected with pMIG-R1/Il7r retroviral supernatants produced in 293T cells, and transduced cells were sorted with a BD Influx (BD Australia) and selected by culture in medium supplemented with 5 ng/mL rmIL-7 (#217-17, Pepro Tech, Rocky Hill NJ, USA) for 7 days. Ba/F3 cells stably expressing Il7r (Ba/F3-IL7R) were infected with TxTCPVIR-Stat5-CA retroviral supernatants produced in 293T. Cell sorting was performed with a BD Influx and transduced cells were treated with doxycycline for 48 h to induce the expression of the Stat5-CA-T2A-mCherry fusion protein. […]
(red) assessed by flow cytometry (top) and Western blots (bottom). MFI ± SD of n=2 technical replicates, performed in 2 independent experiments (***P<0.001 compared to unstimulated cells ; white bar). For Western blots, Actin was used as a loading control. f, Proliferation of BaF3-IL7R Stat5-CA cells in absence (+IL-7 –DOX; grey) or presence (-IL-7 +DOX; red) of doxycycline. Fold expansion was calculated from the number of cells initially put into culture at day 0. […]

As to `C[C@H]1c2cccc(O)c2C(=O)C2=C(O)[C@]3(O)C(=O)C(C(N)=O)=C(O)[C@@H](N(C)C)[C@@H]3[C@@H](O)[C@@H]21` [DOX], the Fold expansion is 0.89 and 0.85 and 0.86 and 0.90 and 0.74 and 0.77 (24 h); 1.39 and 1.43 and 1.24 and 1.40 and 1.29 and 1.28 (48 h); 2.22 and 2.26 and 3.46 and 3.54 and 3.68 and 3.14 (72 h); 3.24 and 3.39 and 3.99 and 3.41 and 3.51 and 3.96 (96 h); 10.84 and 12.62 and 8.80 and 9.76 and 7.34 and 8.20 (120 h).

Regarding IL-7, the Fold expansion was 0.74 and 0.75 and 0.79 and 0.97 and 0.91 and 0.98 (24 h); 2.37 and 2.58 and 4.20 and 3.96 and 3.95 and 3.51 (72 h); 9.32 and 11.24 and 15.76 and 15.48 and 14.68 and 15.08 (120 h).
